Source: patent publication US11312726B2, “Thienodiazepine derivatives and application thereof” (priority 2017, dated 2022)

Columns and labels:
BRD4-BD1 = BRD4-BD1 (Homo sapiens (Human), UniProt O60885); assay: BRD4 biochemical activity test (TR-FRET), BD1; conditions: read-out: BRD4 Binding (BD1), IC50
Text: (§1) BRD4 Biochemical Activity Test
(§2) 1) BRD4-BD1 and BRD4-BD2 proteins of BPS Company, polypeptide of ANASPEC Company, and test reagent of PerkinElmer Company were used in the experiments;
(§3) 2) The TR-FRET experimental principle was used in the experiment to screen compounds.
(§4) 3) Relevant control compounds
(§5) 1) Preparation of the Compound Plate:
(§6) Preparation of the compound plate in the experiment was achieved by Echo:
(§7) 2) Preparation of Reaction Reagents:
(§8) Relevant reaction reagents should be prepared on the day of the experiment:
(§9) a) Formulation of 1× assay buffer;
(§10) b) Formulation of 3× component solution for the experiment: […]
(§11) 1. The reagent was taken out and placed on ice to naturally melt for later use;
(§12) 2. “Solution A” (protein solution), “solution B” (polypeptide solution), and “solution C” (test reagent solution) used in the experiment were formulated with the 1× assay buffer, and during the formation of the 3× solution from the components used in the experiment reaction system, the amounts of solutions A, B and C must be enough for the required amounts in the experiment.
(§13) 3) Experimental Operation Steps:
(§14) The experiment plate was a plate that contained a gradient concentration of the compound and a corresponding DMSO solution and was prepared with ECHO before the experiment:
(§15) a) The experiment plate was taken out, and 5 μL/well of “solution A” (protein solution) was added to columns 2-23 of the experiment plate, then 5 μL/well of 1× assay buffer was added to columns 1 and 24 of the experiment plate, and columns 1 and 24 were used as Min control in the experiment system;
(§16) b) Centrifugation at 1000 rpm was carried out for 30 seconds;
(§17) c) The plate was incubated at 23° C. for 20 minutes;
(§18) d) After 20 minutes of incubation, 5 μL/well of “solution B” (polypeptide solution) was added to columns 1-24 of the experiment plate;
(§19) e) Centrifugation at 1000 rpm was carried out for 30 seconds;
(§20) f) The plate was incubated at 23° C. for 20 minutes;
(§21) g) After 20 minutes of incubation, 5 μL/well of “solution C” (test reagent solution) was added to columns 1-24 of the experiment plate;
(§22) h) Centrifugation at 1000 rpm was carried out for 30 seconds;
(§23) i) The plate was incubated at 23° C. for 40 minutes;
(§24) j) The experiment plate was placed on EnVision to read the plate.
(§25) a) The corresponding Max control and Min control of each experiment plate were used to convert to the Z′ value of the experiment plate, and the Z′ value of each plate was ensured to be >0.5;
(§26) b) The IC50 value was calculated from the signal of the control compound by XLFIT5, and ensured to be maintained within 3 times of the average value of historical data.

BRD4-BD2 = BRD4-BD2 (Homo sapiens (Human), UniProt O60885); assay: BRD4 biochemical activity test (TR-FRET), BD2; conditions: read-out: BRD4 Binding (BD2), IC50
Text: as §1, §2, §3, §4, §5, §6, §7, §8, §9, §10, §11, §12, §13, §14, §15, §16, §17, §18, §19, §20, §21, §22, §23, §24, §25, §26

[1] = system: Human prostatic cancer PC-3 cell subcutaneous xenograft tumor; assay: In vivo pharmacodynamics, PC-3 subcutaneous xenograft tumor model; conditions: 50 mg/kg PO BID × 21 days
Description: In Vivo Pharmacodynamics Study of Compound 32 on Human Prostatic Cancer PC-3 Cell Subcutaneous Xenograft Tumor Model
The formulation method of the test substance was the same as in Table 2, and the animal grouping and the dosage regimen were the same as in Table 3.
Strain: BALB/c nude mouse
Week-age and weight: 6-8 weeks of age, 18-22 grams of body weight
Supplier: Shanghai Sippr-BK laboratory animal Co. Ltd.
(§27) 3. Experiment Methods and Steps
Human prostatic cancer PC-3 cells were cultured in monolayer in vitro, and the culture conditions were F-12K culture medium (supplier: Gibco; article number: 21127-022; manufacturing batch number: 1868870) with 10% fetal bovine serum, 100 U/mL penicillin and 100 μg/mL streptomycin. The culture was performed at 37° C. in 5% CO2. Conventional digestion treatment with pancreatin-EDTA for passage was carried out twice a week. When the cells were in the exponential growth phase, the cells were harvested, counted, and inoculated.
(§28) 3.2 Tumor Cell Inoculation
0.1 mL of 10×10^6 PC-3 cells were subcutaneously inoculated into the right-back of each nude mouse. The grouping and administration was started when the average tumor volume reached 100-150 mm^3.
3.3 Tumor Measurement, Experiment Indices, and Statistical Analysis were the Same as MDA-MB-231 Model

[2] = system: MC38 mouse colon cancer cell transplantation tumor; assay: In vivo anti-tumor effect, MC38 mouse colon cancer transplantation tumor model; conditions: for relative tumor proliferation rate T/C / tumor growth inhibition rate TGI: 20th day after administration
Description: In Vivo Anti-Tumor Effect of Compound 32 in MC38 Mouse Colon Cancer Cell Animal Transplantation Tumor Model
Week-age and weight: 6-7 weeks of age, 16-20 grams of body weight
Supplier: Shanghai SLAC Laboratory Animal Co., Ltd.
as §27
Mouse colon cancer MC38 cells (OBiO Technology (Shanghai) Corp., Ltd.) were cultured in monolayer in vitro, and the culture conditions were DMEM culture medium (Gibco; article number: 12100) with 10% fetal bovine serum. The culture was performed at 37° C. in 5% CO2 in an incubator. Conventional digestion treatment with 0.25% pancreatin-EDTA for passage was carried out. When the cells were in the exponential growth phase and the saturation was 80%-90%, the cells were harvested, counted, and inoculated.
as §28
0.1 mL of 2×10^5 MC38 cells were subcutaneously inoculated into the right-back of each mouse. The random grouping and administration was carried out according to the tumor volume when the average tumor volume reached about 70 mm^3.
Tumor diameter was measured twice a week with vernier calipers. The equation for calculating tumor volume was V=0.5×a×b^2, wherein a and b represented the major and minor diameters of the tumor, respectively.
The tumor inhibition effect of the compound was evaluated by TGI (%) or relative tumor proliferation rate T/C (%). Relative tumor proliferation rate T/C (%)=TRTV/CRTV×100% (TRTV: RTV of the treatment group; CRTV: RTV of the negative control group). The relative tumor volume (RTV) was calculated according to the results of the tumor measurement. The calculation equation was RTV=Vt/V0, where V0 was the average tumor volume measured at the grouping and administration (i.e. D0), and Vt was the average tumor volume at the time of a certain measurement. TRTV and CRTV were obtained from the data on the same day.
TGI (%) reflected the tumor growth inhibition rate.
At the end of the experiment, the tumor weight would be measured and the Tweight/Cweight percentage would be calculated. Tweight and Cweight represented the tumor weights of the administration group and the medium control group, respectively.
Statistical analysis was performed using SPSS software based on the tumor volume and the tumor weight at the end of the experiment. The comparison between two groups was analyzed by t-test, and the comparison between three or more groups was analyzed by one-way ANOVA.

[3] = each administration group (15, 25, 50 mg/kg)

In the case of Cc1sc2c(c1C)C(c1ccc(Cl)cc1)=N[C@@H](CC(=O)Nc1ccc3c(c1)COC3=O)c1nnc(C)n1-2 [Compound 32], the IC50 (BRD4-BD1) is reported as 0.066 µM, the IC50 (BRD4-BD2) is reported as 0.01 µM and the “tolerance of the animals” value [1] is reported as “well tolerated”. The “tumor inhibition effect compared with solvent control” value ([1]; 21st day) was “significant tumor inhibition effect”, the “relative tumor proliferation rate T/C” value ([1]; 21st day after administration) was 44.63% and the “tumor growth inhibition rate TGI” value ([1]; 21st day after administration) was 58.4%. The “relative tumor proliferation rate T/C” value ([2]; 15 mg/kg p.o. BID × 20 days) was 33.68%, the “tumor growth inhibition rate TGI” value ([2]; 15 mg/kg p.o. BID × 20 days) was 68.81% and the “relative tumor proliferation rate T/C” value ([2]; 25 mg/kg p.o. BID × 20 days) was 27.59%. The “tumor growth inhibition rate TGI” value ([2]; 25 mg/kg p.o. BID × 20 days) was 75.21%, the “relative tumor proliferation rate T/C” value ([2]; 50 mg/kg p.o. BID × 20 days) was 10.04% and the “tumor growth inhibition rate TGI” value ([2]; 50 mg/kg p.o. BID × 20 days) was 93.46%. The “tolerance of the animals” value [2, 3] was “good tolerance” and the “tumor inhibition effect (in words)” value [2, 3] was “Significant tumor inhibition effects”.
